Experimental data reported in US8710097B2, “Flavonoid dimers and methods of making and using such” (The Hong Kong Polytechnic University, priority 2006, dated 2014).

Key:
[1] = tested on: LeMDR1 knockout (LeMDR1 −/−) L. enriettii; assay: Leishmania cell viability (MTS) assay; assay type: cell-based, Leishmania enriettii; settings: LeMDR1 −/−
Excerpt: (§1) Cell lines and Cell Culture.

[2] = tested on: LeMDR1 overexpressed L. enriettii (LeV160); assay: Leishmania cell viability (MTS) assay; assay type: cell-based, Leishmania enriettii; settings: LeV160
Excerpt: as §1

[3] = tested on: wild type L. donovani LdAG83 promastigotes; assay: Leishmania cell viability (MTS) assay; assay type: cell-based, Leishmania donovani
[4] = tested on: SSG-resistant L. donovani Ld39 promastigotes; assay: microbe, parasite or virus in culture; assay type: cell-based, Leishmania donovani
[5] = tested on: wild type L. enriettii (Le); assay: Leishmania cell viability (MTS) assay; assay type: cell-based, Leishmania enriettii; settings: Le wild type
Method: Cell lines and Cell Culture. Promastigotes of Leishmania enriettii (LePentR50, Le wild type, LeMDR1 −/− and LeMDR1-overexpressed LeV160 mutants) and Leishmania donovani (LdAG83, Ld2001 and Ld39) were employed in this study. The former is a natural infective strain of guinea pig and the latter is a clinical strain, which may cause visceral leishmaniasis in human. Both strains were cultured in Schneider's Drosophila Medium (Invitrogen), pH 6.9 supplemented with 10% (v/v) heat inactivated fetal calf serum (Hyclone) with 4 mM glutamine (Sigma) and 25 μg/mL gentamicin solution (Invitrogen), at 27° C. for 4 days (Cloning and functional analysis of an extrachromosomally amplified multidrug resistance-like gene in Leishmania enriettii. Mol. Biochem. Parasitol 1993, 60, 195-208).
Promastigotes of LeV160 were culture in the presence of 160 μg/mL vinblastine. No pentamidine and vinblastine (Sigma) was added to the Le wild type and LeMDR1 −/− mutant.
The viability of promastigotes was determined by the Cell Titer 96® Aqueous Assay (Promega) that employs a tetrazolium compound (MTS) and electron coupling reagent, phenazine methosulfate (PMS). Promastigotes were seeded into 96-well flat bottom microtiter plate at 1×10^5 cells per well in a final volume of 100 μL medium. To determine the cytotoxic effects of flavonoid dimers to the parasites, various concentrations of flavonoid dimers were added to the promastigotes. To determine the reversal effects of flavonoid dimers with different spacer lengths, various concentrations of antileishmanial drugs, one of pentamidine or SSG, vinblastine and puromycin was added to the wells with or without flavonoid dimers. The parasites were incubated at 27° C. for 72 hrs. Each concentration of antileishmanials with or without the flavonoid dimers was tested in triplicates in each experiment. A 2 mg/mL MTS and 0.92 mg/mL PMS were mixed at a ratio of 20:1 (MTS: PMS). […] After 4 hrs of incubation, the OD values were determined at 490 nm using automatic microtiter plate reader (Bio-Rad).

[6] = tested on: P388/ADR cells; assay: cells; settings: P388/ADR
Method: MDA435/LCC6 and P388 (both parent and MDR subtype) were maintained in DMEM and RPMI 1640 culture medium supplemented with 10% FBS, respectively. RPMI 1640 media also contained 100 units/ml penicillin and 100 μg/ml streptomycin. Cells were cultured at 37° C. in a humidified atmosphere with 5% CO2. A solution of 0.05% trypsin-EDTA was used to detach the MDA435/LCC6 (both wild type and MDR subtype) cells.
Cell proliferation assay. MDA435/LCC6 and P388 (both parent and MDR subtype) cells were seeded at 2000 and 5000 cells per well, respectively, in 96-well plates. Varying concentrations of anticancer drugs (Doxorubicin, Daunorubicin, Vincristine, Vinblastine, taxol, Mitoxantrone) with or without the flavonoid dimers were added in a final volume of 200 μl and cells were grown for 4 and 3 days for MDA435/LCC6 and P388 (both parent and MDR subtype) cells, respectively. For MDA435/LCC6 (both parent and MDR subtype), the corresponding drugs were added after cell attachment (24 hr incubation). To measure cell proliferation, the cell Titer 960 Aqueous Assay (Promega) was used according to the manufacturer's instructions. Briefly, MTS (2 mg/ml) and PMS (0.92 mg/ml) were mixed in a ratio of 20:1. 30 μl MTS/PMS mixture was added into each well and incubated for 2 hours at 37° C. Optical absorbance at 490 nm was then recorded using an ELISA microtiter plate reader (Bio-Rad). Each experiment was done at least in triplicate and repeated twice. Cytotoxicity of the anticancer drugs was expressed as the fraction of the cells survived relative to the untreated DMSO (0.05%) solvent controls.

[7] = tested on: tested MDR cell lines (drug resistant breast cancer and leukemia cells); assay type: cell-based
Excerpt: Cell proliferation assay.

[8] = tested on: pentamidine-resistant L. enriettii LePentR50 promastigotes; assay: microbe, parasite or virus in culture

Structure (SMILES): O=c1cc(-c2ccc(OCCOCCOCCOCCOc3ccc(-c4cc(=O)c5c(O)cc(O)cc5o4)cc3)cc2)oc2cc(O)cc(O)c12 [Compound 9d, 1,13-Bis[4′-((5,7-dihydroxy)-4H-chromen-4-on-2-yl)phenyl]-1,4,7,10,13-pentaoxamidecane]
- pentamidine sensitization [1]: 4.1 fold
- decrease of IC50 of pentamidine [2]: ~1.9 fold
- modulating effect on SSG sensitivity ([3]; LdAG83, up to 6 μM, FIG. 17C): did not have any modulating effect
- modulatory effect on SSG sensitivity ([3]; SSG-sensitive wild type LdAG83, FIG. 14D): no modulatory effect
- IC50 ([3]; cytotoxicity of compound alone, 72 hrs, read-out: IC50(μM) of synthetic flavonoid, LdAG83): 7 ± 0.4 µM
- reduction of SSG resistance level ([4]; Ld39, 4 μM, FIGS. 17A and 17B): back to the level of the sensitive strain
- SSG sensitization ([4]; Ld39, FIG. 18B): 3.9 fold
- IC50 ([4]; cytotoxicity of compound alone, 72 hrs, read-out: IC50(μM) of synthetic flavonoid, Ld39): 10 ± 0.9 µM
- decrease of IC50 of pentamidine [5]: about 3 fold
- reversal of resistance to taxol, vincristine and vinblastine ([6]; 5 μM 9d): completely reverse the resistance of P388/ADR to almost the sensitive level
- effect on mitoxantrone resistance ([6]; 9d): no effect
- saturating concentration for reversing doxorubicin and daunorubicin resistance ([6]; FIG. 8B, 9B): about 5 μM
- RF, daunorubicin ([6]; daunorubicin + 5 μM 9d or VP): 20
- RF, doxorubicin ([6]; doxorubicin + 5 μM 9d): 14
- RF, mitoxantrone ([6]; mitoxantrone + 5 μM 9d): 2
- RF, taxol ([6]; taxol + 5 μM 9d): 55
- RF, vinblastine ([6]; vinblastine + 5 μM 9d): 22
- RF, vincristine ([6]; vincristine + 5 μM 9d): 66
- increase of cytotoxicity of anticancer drugs [7]: 6-50 RF
- cytotoxicity under accumulation conditions ([8]; LePentR50, 60 μM 9d, 3 hours, data not shown): did not result in any cytotoxicity
- pentamidine sensitization ([8]; LePentR50, FIG. 18A): ~3.7 fold
- toxicity of modulator alone ([8]; LePentR50, up to 6 μM): No toxicity
- EC50 ([8]; read-out: EC50 (concentration resulting in 50% survival of LePentR50 at 60 μg/ml pentamidine), co-treatment with 60 μg/ml pentamidine, FIG. 15): ~0.94 µM
- IC50 ([8]; read-out: IC50(μM) of synthetic flavonoid, LePentR50, cytotoxicity of compound alone, 72 hrs): > 200 µM
